Measurements: patent US20220204501A1, “ENTEROVIRUS INHIBITOR” (ACADEMY OF MILITARY MEDICAL SCIENCES, priority 2019, published 2022)

Key:
CA16 = test: organism not typed; type: cell-based; details: RD, 96 h
CA6 = test: organism not typed; type: cell-based; details: RD, 96 h
CA10 = test: organism not typed; type: cell-based; details: RD, 96 h
mTOR kinase = mTOR kinase (Homo sapiens, UniProt P42345); test: Inhibitory activity on mTOR kinase (TR-FRET, GFP-4E-BP1 substrate); type: biochemical; details: fit parameter of concentration-mTOR kinase inhibition curve
EV71 virus [1] = test system: EV71 virus
EV-D68 [2] = test system: EV-D68
CB3 virus [3] = test system: CB3 virus
[4] = test system: Poliovirus I/II/III (mixed vaccine strains of three subtypes)
mTORC1 = mTORC1 (Homo sapiens, UniProt P42345); details: RD cells, 20 μM, 2 hours, insulin medium, Western blot
mTORC2 = mTORC2 (Homo sapiens, UniProt P42345); details: RD cells, 20 μM, 2 hours, insulin medium, Western blot
CB3 virus [5] = test: organism not typed; details: Vero, 120 h
EV71 virus [6] = test: microbe, parasite or virus in culture; details: Enterovirus A, EV71, RD, 96 h
EV-D68 [7] = test: microbe, parasite or virus in culture; details: Enterovirus D, EVD68, RD, 96 h
[8] = test system: Poliovirus I/II/III (mixed vaccine strains of three subtypes); test: microbe, parasite or virus in culture; details: Enterovirus C, RD, 96 h

`Nc1ccc(-c2ccc3ncc4ccc(=O)n(-c5cccc(C(F)(F)F)c5)c4c3c2)cn1` [compound of Formula I, 9-(6-amino-pyridin-3-yl)-1-(3-trifluoromethyl-phenyl)-1H-benzo[h][1,6]naphthyridin-one] showed an IC50 (CA16) of over 10000 nM, an IC50 (CA6) of over 10000 nM and an IC50 (CA10) of over 10000 nM. The Bottom (mTOR kinase) was 3.74, the HillSlope (mTOR kinase) was 1.14 and the Top (mTOR kinase) was 103.60. For the same molecule, the “inhibitory effect on enterovirus (in words)” value (from here on “inhibitory effect”) (EV71 virus [1]) was “significant inhibitory effect”, the “inhibitory effect” value (EV-D68 [2]) was “significant inhibitory effect” and the “inhibitory effect” value (CB3 virus [3]) was “significant inhibitory effect”. The “inhibitory effect” value [4] was “significant inhibitory effect”, the “phosphorylation expression levels of p70 (Thr389 of p70S6K1)” value (mTORC1) was “significantly reduced” and the “phosphorylation level of Akt (Ser473)” value (mTORC2) was “significantly down-regulate”. For the same molecule, the IC50 (CB3 virus [5]) was 5 nM, the IC50 (EV71 virus [6]) was 10 nM and the IC50 (EV-D68 [7]) was 5 nM. The IC50 [8] was 52 nM.
